Marks after values point to notes of the source that are not given here.
How the values were obtained:
[1] = test system: heat shock protein Hspa8 and Hspa1a; assay: Example 3 in vivo pharmacodynamic study via oral dosing: RT-qPCR of brain; settings: mouse brain, 25 mg/kg oral once daily 4 days; for Relative expression of Hspa1a normalized with Group 1 / Relative expression of Hspa8 normalized with Group 1: normalized to Actb
Method: Wildtype mice were dosed orally at 25 mg/kg (6aS)-6-methyl-5,6,6a,7-tetrahydro-4H-dibenzo[de,g]quinoline-10,11-diol for 4 days once daily.
A total of 36 mice were randomly divided into twelve groups. Each group had 3 mice. After oral administration of (6aS)-6-methyl-5,6,6a,7-tetrahydro-4H-dibenzo[de,g]quinoline-10,11-diol once a day for 4 consecutive days, brains of mice in each group were sampled individually at the time point of 0, 5, 15, 30 min, 1, 2, 3, 4, 8, 12, 24 and 48 hour post the last oral dose. A quarter of whole brain from each mouse in every time group underwent a real-time quantitative polymerase chain reaction (RT-qPCR) analysis. Before RNA extraction, brain tissues were frozen immediately in liquid nitrogen, and were transferred to −80° C. until further use.
Total RNA from 36 frozen brain samples were extracted using Trizol reagent (Invitrogen, Carlsbad, Calif., USA, 15596018) according to the manufacturer's instructions. After extraction, the integrity of total RNA was be checked by 1% agarose gel staining with ethidium bromide as well as by nanodrop (Thermo Fisher, USA). Then, 2 μg of total RNA was used for reverse transcription by M-MLV Reverse Transcriptase (Invitrogen, 28025-013) with gDNA removal (NEB, M0303S). qRT-PCR analysis was performed using LightCycler® 480 Probe Master (4887301001, Roche, Basel, Switzerland) and the Roche LightCycler480 (Roche). The data from triplicate experiments were subjected to statistical analysis and the target genes were normalized against the levels of actin beta (Actb) mRNA. The primers are listed as follows: […]

[2] = test system: NRF2; assay: Example 1 in vivo pharmacodynamic study via subcutaneous dosing: expression of genes upregulated by NRF2 activation; set-up: species or system mouse; settings: wildtype mice
Method: Wildtype mice (3 per group) were dosed subcutaneously at 0, 0.5, 1.5, 5 and 10 mg/kg (6aS)-6-methyl-5,6,6a,7-tetrahydro-4H-dibenzo[de,g]quinoline-10,11-diol hydrochloride for 7 days once daily. One animal in the 10 mg/kg dosing group was actually dosed 15 mg/kg on Day 1. To prepare the dosing solutions, (6aS)-6-methyl-5,6,6a,7-tetrahydro-4H-dibenzo[de,g]quinoline-10,11-diol was pre-weighed into bijous and stored in foil.

[3] = Group 3 (15 min) post last dose
[4] = Group 4 (30 min) post last dose
[5] = Group 10 (12 Hr) post last dose
[6] = Group 11 (24 Hr) post last dose
[7] = Group 12 (48 Hr) post last dose
[8] = 5 mg/kg s.c. once daily 7 days, 24 hours post final dose, compared to Gapdh
[9] = 10 mg/kg s.c. once daily 7 days, 24 hours post final dose, compared to Actb

In the case of `CN1CCc2cccc3c2[C@@H]1Cc1ccc(O)c(O)c1-3` [(6aS)-6-methyl-5,6,6a,7-tetrahydro-4H-dibenzo[de,g]quinoline-10,11-diol], the “Relative expression of Hspa1a normalized with Group 1” value ([1]; Group 1 (0 min) post last dose) is reported as 1.00, the “Relative expression of Hspa8 normalized with Group 1” value ([1]; Group 1 (0 min) post last dose) is reported as 1.00 and the “Relative expression of Hspa1a normalized with Group 1” value ([1]; Group 2 (5 min) post last dose) is reported as 0.96. For the same molecule, the “Relative expression of Hspa8 normalized with Group 1” value ([1]; Group 2 (5 min) post last dose) was 0.85, the “Relative expression of Hspa1a normalized with Group 1” value [1, 3] was 1.05 and the “Relative expression of Hspa8 normalized with Group 1” value [1, 3] was 0.89. The “Relative expression of Hspa1a normalized with Group 1” value [1, 4] was 1.06, the “Relative expression of Hspa8 normalized with Group 1” value [1, 4] was 0.91 and the “Relative expression of Hspa1a normalized with Group 1” value ([1]; Group 5 (1 Hr) post last dose) was 0.90. For the same molecule, the “Relative expression of Hspa8 normalized with Group 1” value ([1]; Group 5 (1 Hr) post last dose) was 0.92, the “Relative expression of Hspa1a normalized with Group 1” value ([1]; Group 6 (2 Hr) post last dose) was 1.02 and the “Relative expression of Hspa8 normalized with Group 1” value ([1]; Group 6 (2 Hr) post last dose) was 0.96. For the same molecule, the “Relative expression of Hspa1a normalized with Group 1” value ([1]; Group 7 (3 Hr) post last dose) was 1.10, the “Relative expression of Hspa8 normalized with Group 1” value ([1]; Group 7 (3 Hr) post last dose) was 0.96 and the “Relative expression of Hspa1a normalized with Group 1” value ([1]; Group 8 (4 Hr) post last dose) was 1.09. The “Relative expression of Hspa8 normalized with Group 1” value ([1]; Group 8 (4 Hr) post last dose) was 1.01, the “Relative expression of Hspa1a normalized with Group 1” value ([1]; Group 9 (8 Hr) post last dose) was 2.25* and the “Relative expression of Hspa8 normalized with Group 1” value ([1]; Group 9 (8 Hr) post last dose) was 1.11. The “Relative expression of Hspa1a normalized with Group 1” value [1, 5] was 1.33*, the “Relative expression of Hspa8 normalized with Group 1” value [1, 5] was 1.17** and the “Relative expression of Hspa1a normalized with Group 1” value [1, 6] was 1.04. For the same molecule, the “Relative expression of Hspa8 normalized with Group 1” value [1, 6] was 1.14**, the “Relative expression of Hspa1a normalized with Group 1” value [1, 7] was 1.04 and the “Relative expression of Hspa8 normalized with Group 1” value [1, 7] was 0.99. For the same molecule, the “Hspa1a mRNA level compared with group 1 (in words)” value ([1]; group 9 and 10 (8 Hr, 12 Hr)) was “significant increase”, the “mRNA expression levels of Hspa8 compared with group 1 (in words)” value ([1]; group 10 and 11 (12 Hr, 24 Hr)) was “slight increase” and the “group in which Hspa1a mRNA level reached a peak” value ([1]; group 9 = 8 Hr post last dose) was “group 9”. It also gave a Gclm gene induction ([2]; 5 mg/kg s.c. once daily 7 days, 6 hours post final dose, compared to Gapdh) of 1.5 fold, a Gclm gene induction [2, 8] of 1.5 fold and a Nqo1 gene induction [2, 8] of 1.3 fold. It also gave a Gclm gene induction ([2]; 10 mg/kg s.c. once daily 7 days, 6 hours post final dose, compared to Actb) of 1.4 fold, a Gclm gene induction [2, 9] of 1.2 fold and an NRF2-responsive gene induction [2, 9] of 1.4 fold.
